Source: patent US8097637B2, “Benzoyl-piperidine derivatives as dual modulators of the 5-HT2A and D3 receptors” (Hoffmann-La Roche Inc., priority 2007, dated 2012)

Legend:
[1] = target: T1, human 5-HT2A serotonin receptor (Homo sapiens, UniProt P28223); assay: Radioligand binding ([3H]-ketanserin) to cloned human 5-HT2A receptor, HEK-293 EBNA cell membranes; details: 1.1 nM [3H]-ketanserin, 1 h at RT, Cheng-Prusoff
T1 construct: expressed in transfected cells; host or cells: HEK-293 EBNA cells, transient transfection; membrane preparation
T1 sequence (P28223 whole entry): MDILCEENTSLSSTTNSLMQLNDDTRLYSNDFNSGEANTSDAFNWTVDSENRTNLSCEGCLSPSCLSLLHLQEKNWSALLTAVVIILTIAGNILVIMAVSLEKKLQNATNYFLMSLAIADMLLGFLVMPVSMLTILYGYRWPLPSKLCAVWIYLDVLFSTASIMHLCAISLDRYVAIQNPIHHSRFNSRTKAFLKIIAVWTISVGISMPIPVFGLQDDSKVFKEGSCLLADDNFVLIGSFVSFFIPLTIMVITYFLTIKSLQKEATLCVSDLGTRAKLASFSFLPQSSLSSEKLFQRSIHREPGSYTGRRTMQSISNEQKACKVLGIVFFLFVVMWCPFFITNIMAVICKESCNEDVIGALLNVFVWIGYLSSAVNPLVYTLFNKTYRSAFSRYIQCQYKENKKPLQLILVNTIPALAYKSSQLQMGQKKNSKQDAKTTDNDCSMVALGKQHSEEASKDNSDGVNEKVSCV
Method: (§1) Membrane Preparation for Human D2, Human D3 and Human 5-HT2A Receptors
(§2) The cells were harvested 48 h post-transfection, washed three times with cold PBS and stored at −80° C. prior to use. The pellet was suspended in cold 50 mM Tris-HCl buffer containing 10 mM EDTA (pH 7.4) and homogenized with a Polytron (Kinematica AG, Basel, Switzerland) for 20-30 sec at 12.000 rpm. After centrifugation at 48.000×g for 30 min at 4° C., the pellet was resuspended in cold 10 mM Tris-HCl buffer containing 0.1 mM EDTA (pH 7.4), homogenized, and centrifuged as above. This pellet was further resuspended in a smaller volume of ice cold 10 mM Tris-HCl buffer containing 0.1 mM EDTA (pH 7.4) and homogenized with a Polytron for 20-30 sec at 12.000 rpm. The protein content of this homogenate was determined with the Bio-Rad (Bradford) Protein Assay (Biorad Laboratories GmbH, München, Germany) according to the instructions of the manufacturer using gamma globulin as the standard. This homogenate was stored at −80° C. in aliquots and thawed immediately prior to use.
(§3) Radioligand Binding Assay Conditions
(§4) Aliquots of membrane preparations were thawed at RT, resuspended in assay buffer (D2, D3: 50 mM Tris-HCl, 120 mM NaCl, 5 mM MgCl2, 1 mM EDTA, 5 mM KCl, 1.5 mM CaCl2, pH=7.4; 5-HT2A: 50 mM Tris-HCl, 10 mM MgCl2, 1 mM EGTA, pH=7.4), homogenized with a Polytron for 20-30 sec at 12.000 rpm and adjusted to a final concentration of approximately 7.5 μg protein/well (D2, D3) and 15 μg protein/well (5-HT2A), respectively.
The binding affinity (Ki) of the compounds was determined using radioligand binding. […] The nonspecific binding was determined with equally composed reaction mixtures in the presence of 10 μM unlabeled spiperone. Per well 45 μl of Microscint 40 (Perkin Elmer, Schwerzenbach, Switzerland) was added, plates for sealed, shaken for 20 min and counted for 3 min on a Topcount Microplate Scintillation Counter (Canberra Packard SA, Zürich, Switzerland) with quenching correction.
(§5) The CPM value for each duplicate of a concentration of competing compound was averaged (yl), then the % specific binding was calculated according to the equation (((yl-non-specific)/(total binding-non-specific))×100). Graphs were plotted with the % specific binding using XLfit, a curve fitting program that iteratively plots the data using Levenburg Marquardt algorithm. The single site competition analysis equation used was y=A+((B−A)/(1+((x/C)^D))), where y is the % specific binding, A is the minimum y, B is the maximum y, C is the IC50, x is the log10 of the concentration of the competing compound and D is the slope of the curve (the Hill Coefficient). […] The affinity constant (Ki) was calculated using the Cheng-Prusoff equation Ki=(IC50/1+([L]/Kd), where [L] is the concentration of radioligand and Kd is the dissociation constant of the radioligand at the receptor as determined by the saturation isotherm.

[2] = target: T2, human D3 dopamine receptor (Homo sapiens, UniProt P35462); assay: Radioligand binding ([3H]-spiperone) to cloned human D3 receptor, HEK-293 EBNA cell membranes; details: 0.5 nM [3H]-spiperone, 1 h at RT, Cheng-Prusoff
T2 construct: expressed in transfected cells; host or cells: HEK-293 EBNA cells, transient transfection; membrane preparation
T2 sequence (P35462 whole entry): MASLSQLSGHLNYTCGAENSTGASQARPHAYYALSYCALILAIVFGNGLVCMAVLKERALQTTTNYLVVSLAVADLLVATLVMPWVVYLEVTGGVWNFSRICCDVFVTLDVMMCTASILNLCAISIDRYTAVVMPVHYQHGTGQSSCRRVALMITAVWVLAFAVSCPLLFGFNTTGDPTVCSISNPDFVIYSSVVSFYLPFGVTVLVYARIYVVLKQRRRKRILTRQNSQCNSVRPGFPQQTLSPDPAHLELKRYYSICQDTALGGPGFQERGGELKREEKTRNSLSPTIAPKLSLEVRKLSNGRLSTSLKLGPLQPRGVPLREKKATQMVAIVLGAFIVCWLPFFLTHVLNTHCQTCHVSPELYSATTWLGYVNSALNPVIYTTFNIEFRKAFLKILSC
Method: The ability of the compounds to bind to the 5-HT2A, D3 and D2 receptors was determined using radioligand binding to cloned receptors selectively expressed in HEK-293 EBNA cells.
as §1
as §2, with “HEK-293 EBNA cells were transiently transfected with expression plasmids encoding for the human D2 or D3 dopamine- or for the human 5-HT2A serotonin receptor, respectively. The cells” for “The cells”
as §3, §4
(§6) The binding affinity (Ki) of the compounds was determined using radioligand binding. Membranes were incubated in a total volume of 200 μl with a fixed concentration of radioligand (final concentration approximately 0.7 nM [^3H]-spiperone for D2, 0.5 nM [^3H]-spiperone for D3, and 1.1 nM [^3H]-ketanserin for 5-HT2A) and ten concentrations of test compound in ranging between 10 μM-0.1 nM for 1 h at RT. At the end of the incubation, the reaction mixtures were filtered on to unifilter 96-well white microplates with bonded GF/C filters (Packard BioScience, Zürich, Switzerland; preincubated for 1 h in 0.1% polyethylenimine (PEI) in assay buffer) with a Filtermate 196 harvester (Packard BioScience) and washed 3 times with cold assay buffer. The nonspecific binding was determined with equally composed reaction mixtures in the presence of 10 μM unlabeled spiperone. Per well 45 μl of Microscint 40 (Perkin Elmer, Schwerzenbach, Switzerland) was added, plates for sealed, shaken for 20 min and counted for 3 min on a Topcount Microplate Scintillation Counter (Canberra Packard SA, Zürich, Switzerland) with quenching correction.
as §5

[3] = target: T3, human D2 dopamine receptor (Homo sapiens, UniProt P14416); assay: Radioligand binding ([3H]-spiperone) to cloned human D2 receptor, HEK-293 EBNA cell membranes; details: 0.7 nM [3H]-spiperone, 1 h at RT, Cheng-Prusoff
T3 construct: expressed in transfected cells; host or cells: HEK-293 EBNA cells, transient transfection; membrane preparation
T3 sequence (P14416 whole entry): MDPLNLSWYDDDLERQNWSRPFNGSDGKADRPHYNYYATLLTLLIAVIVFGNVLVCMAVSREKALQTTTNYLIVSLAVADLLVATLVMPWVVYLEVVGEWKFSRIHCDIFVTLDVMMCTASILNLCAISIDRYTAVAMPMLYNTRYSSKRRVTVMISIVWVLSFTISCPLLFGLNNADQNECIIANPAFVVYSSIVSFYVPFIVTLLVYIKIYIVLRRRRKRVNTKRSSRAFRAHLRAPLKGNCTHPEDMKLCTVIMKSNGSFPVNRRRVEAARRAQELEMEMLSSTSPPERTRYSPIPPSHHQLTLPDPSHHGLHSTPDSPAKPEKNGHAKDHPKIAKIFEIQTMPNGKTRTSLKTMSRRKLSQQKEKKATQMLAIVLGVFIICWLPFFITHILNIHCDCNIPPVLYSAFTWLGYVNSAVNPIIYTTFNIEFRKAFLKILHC
Method: as §1
as §2, with “HEK-293 EBNA cells were transiently transfected with expression plasmids encoding for the human D2 or D3 dopamine- or for the human 5-HT2A serotonin receptor, respectively. The cells” for “The cells”
as §3, §4, §6, §5

Structure (SMILES) | Ki [1] | Ki [2] | Ki [3]
O=C(CC1CCC(O)CC1)N[C@H]1CC[C@H](CCN2CCC(C(=O)c3ccc(F)cc3)CC2)CC1 (mixture of isomers) [Example 1, N-trans (4-{2-[4-(4-Fluoro-benzoyl)-piperidin-1-yl]-ethyl}-cyclohexyl)-2-cis/trans (4-hydroxy-cyclohexyl)-acetamide] | 13 nM | 43 nM | 1490 nM
COC[C@H]1CC[C@H](CC(=O)N[C@H]2CC[C@H](CCN3CCC(C(=O)c4ccc(F)cc4)CC3)CC2)CC1 [Example 21, N-trans (4-{2-[4-(4-Fluoro-benzoyl)-piperidin-1-yl]-ethyl}-cyclohexyl)-2-trans (4-methoxymethyl-cyclohexyl)-acetamide] | 5 nM | 25 nM | 1010 nM
COC1CCC(CCC(=O)N[C@H]2CC[C@H](CCN3CCC(C(=O)c4ccc(F)cc4)CC3)CC2)CC1 (mixture of isomers) [Example 29, rac-N-trans (4-{2-[4-(4-Fluoro-benzoyl)-piperidin-1-yl]-ethyl}-cyclohexyl)-3-(4-methoxy-cyclohexyl)-propionamide] | 7 nM | 41 nM | 1410 nM
CO[C@H]1CC[C@H](CC(=O)N[C@H]2CC[C@H](CCN3CCC(C(=O)c4ccc(F)cc4)CC3)CC2)C1 (single isomer, unassigned) [Example 14, N-trans (4-{2-[4-(4-Fluoro-benzoyl)-piperidin-1-yl]-ethyl}-cyclohexyl)-2-((1S,3S)-3-methoxy-cyclopentyl)-acetamide or N-trans (4-{2-[4-(4-fluoro-benzoyl)-piperidin-1-yl]-ethyl}-cyclohexyl)-2-((1R,3R)-3-methoxy-cyclopentyl)-acetamide] | 7 nM | 18 nM | –
CO[C@@H]1CC[C@H](CC(=O)N[C@H]2CC[C@H](CCN3CCC(C(=O)c4ccc(F)cc4)CC3)CC2)C1 (racemic) [Example 9, rac-N-trans (4-{2-[4-(4-Fluoro-benzoyl)-piperidin-1-yl]-ethyl}-cyclohexyl)-2-cis (3-methoxy-cyclopentyl)-acetamide] | 6 nM | 42 nM | –
CO[C@H]1CC[C@H](CC(=O)N[C@H]2CC[C@H](CCN3CCC(C(=O)c4ccc(F)cc4)CC3)CC2)CC1 [Example 3, N-trans (4-{2-[4-(4-Fluoro-benzoyl)-piperidin-1-yl]-ethyl}-cyclohexyl)-2-trans (4-methoxy-cyclohexyl)-acetamide] | 6 nM | 24 nM | 1280 nM
CC(=O)N[C@H]1CC[C@H](CC(=O)N[C@H]2CC[C@H](CCN3CCC(C(=O)c4ccc(F)cc4)CC3)CC2)CC1 [Example 27, 2-trans (4-Acetylamino-cyclohexyl)-N-trans-(4-{2-[4-(4-fluoro-benzoyl)-piperidin-1-yl]-ethyl}-cyclohexyl)-acetamide] | 34 nM | 44 nM | 2070 nM
C[C@]1(O)CC[C@H](CC(=O)N[C@H]2CC[C@H](CCN3CCC(C(=O)c4ccc(F)cc4)CC3)CC2)CC1 (single isomer, unassigned) [Example 23, N-trans (4-{2-[4-(4-Fluoro-benzoyl)-piperidin-1-yl]-ethyl}-cyclohexyl)-2-(4-trans-hydroxy-4-methyl-cyclohexyl)-acetamide or N-trans (4-{2-[4-(4-fluoro-benzoyl)-piperidin-1-yl]-ethyl}-cyclohexyl)-2-(4-cis-hydroxy-4-methyl-cyclohexyl)-acetamide] | 7 nM | 49 nM | 1300 nM
COCC1CC(CC(=O)N[C@H]2CC[C@H](CCN3CCC(C(=O)c4ccc(F)cc4)CC3)CC2)C1 (mixture of isomers) [Example 20, N-trans(4-{2-[4-(4-Fluoro-benzoyl)-piperidin-1-yl]-ethyl}-cyclohexyl)-2-cis/trans (3-methoxymethyl-cyclobutyl)-acetamide] | 12 nM | 27 nM | 1360 nM
CO[C@@H]1CC[C@@H](CC(=O)N[C@H]2CC[C@H](CCN3CCC(C(=O)c4ccc(F)cc4)CC3)CC2)C1 (single isomer, unassigned) [Example 15, N-trans (4-{2-[4-(4-Fluoro-benzoyl)-piperidin-1-yl]-ethyl}-cyclohexyl)-2-((1R,3R)-3-methoxy-cyclopentyl)-acetamide or N-trans (4-{2-[4-(4-fluoro-benzoyl)-piperidin-1-yl]-ethyl}-cyclohexyl)-2-((1S,3S)-3-methoxy-cyclopentyl)-acetamide] | 16 nM | 34 nM | –
CO[C@H]1CC[C@H](CC(=O)N[C@H]2CC[C@H](CCN3CCC(C(=O)c4ccc(F)cc4)CC3)CC2)C1 (racemic) [Example 8, rac-N-trans(4-{2-[4-(4-Fluoro-benzoyl)-piperidin-1-yl]-ethyl}-cyclohexyl)-2-trans (3-methoxy-cyclopentyl)-acetamide] | 16 nM | 23 nM | –
CO[C@H]1CC[C@@H](CC(=O)N[C@H]2CC[C@H](CCN3CCC(C(=O)c4ccc(F)cc4)CC3)CC2)C1 (single isomer, unassigned) [Example 11, N-trans (4-{2-[4-(4-Fluoro-benzoyl)-piperidin-1-yl]-ethyl}-cyclohexyl)-2-((1R,3S)-3-methoxy-cyclopentyl)-acetamide or N-trans (4-{2-[4-(4-fluoro-benzoyl)-piperidin-1-yl]-ethyl}-cyclohexyl)-2-((1S,3R)-3-methoxy-cyclopentyl)-acetamide] | 11 nM | 62 nM | –
CO[C@@H]1CC[C@H](CC(=O)N[C@H]2CC[C@H](CCN3CCC(C(=O)c4ccc(F)cc4)CC3)CC2)C1 (single isomer, unassigned) [Example 10, N-trans (4-{2-[4-(4-Fluoro-benzoyl)-piperidin-1-yl]-ethyl}-cyclohexyl)-2-((1S,3R)-3-methoxy-cyclopentyl)-acetamide or N-trans (4-{2-[4-(4-fluoro-benzoyl)-piperidin-1-yl]-ethyl}-cyclohexyl)-2-((1R,3S)-3-methoxy-cyclopentyl)-acetamide] | 5 nM | 56 nM | –
